According to patent US4997816A, “Induction of fertile ovulation in anoestruns mares” (The University of Melbourne, priority 1985, dated 1991):
“And” between values parts separate entries of the source, which are not always exact repeats. Equal entries are not always repeated. Where two headings read alike, the source gives them in different places.

Legend:
Type in all cases: in vivo, mare
[1] = test system: Standardbred mares in deep anoestrus; conditions: for Proportion mares ovulating: deep anoestrus; for Proportion mares ovulating / Percentage mares ovulating: 1984
Excerpt: Delivery of GnRH was achieved via osmotic minipumps (OMP; Alza Corp., Palo Alto, CA:). These pumps are constructed of a rigid, semi-permeable membrane, inside which is suspended a water-proof bag which is filled with the substance to be infused. The neck of the bag is open to the atmosphere. Between the bag and the membrane a special osmotic solution is held. This solution causes an influx of water through the semi-permeable membrane when the OMP is placed in the body of animals. The influx of water collapses the bag at a fixed rate and the substance contained in the bag is expelled from the OMP at a steady rate. […] Fourteen Standardbred mares in deep anoestrus were divided into 3 groups. Group C (controls; n=5) received no treatment while Group 50 (n=5) and Group 100 (n=4) were given infusions of GnRH at rates of 50 ng/kg/h and 100 ng/kg/h respectively. The GnRH was administered via subcutaneously implanted osmotic minipumps (OMP) for 28 days. Blood samples were collected daily and ovarian palpation and oestrus detection was carried out 3 times per week or daily if a follicle >3.5 cm was detected.

[2] = test system: Standardbred mares in transitional or "shallow" anoestrus
Excerpt: Delivery of GnRH was achieved via osmotic minipumps (OMP; Alza Corp., Palo Alto, CA:). These pumps are constructed of a rigid, semi-permeable membrane, inside which is suspended a water-proof bag which is filled with the substance to be infused. The neck of the bag is open to the atmosphere. Between the bag and the membrane a special osmotic solution is held. This solution causes an influx of water through the semi-permeable membrane when the OMP is placed in the body of animals. The influx of water collapses the bag at a fixed rate and the substance contained in the bag is expelled from the OMP at a steady rate. […] Ten young Standardbred mares of 3 to 5 years of age as judged by wear of the teeth were used in the experiment. During the experiment, the mares were fed hay twice daily and kept in a paddock. The mares were vaccinated against Tetanus and Strangles and were given regular anthelmintic and lice treatments. Their body condition during the experiment was good to very good. Ovarian palpations were carried out and blood was collected from the mares every 2 or 3 days for 4 weeks prior to commencement of the experiment. […] The experiment commenced on Sept. 10, 1984. Mares were randomised in pairs to a Treated group or a Control group until all the mares had been assigned to groups by Sept. 21. The mares were paired on the basis of each mare having approximately equal ovarian follicular activity. Each treated mare was weighted just prior to the experiment. The dose of GnRH (100 ng/kg/hr) to be administered over 28 days was calculated and dissolved in sterile, physiological (0.9%) saline. The solution was loaded into an OMP and placed in a beaker of saline at room temperature overnight to allow for the "start up time" of the OMP. The OMP were inserted subcutaneously in the side of the necks of the treated mares, under local infiltration anaesthesia. The pumps were retained using 1 or 2 mattress sutures in the skin. After insertion of the OMP, the treated and control mares were run as a group in a single paddock. Every 2 or 3 days the mares were brought into the yards. Ovarian palpations were carried out and blood samples were collected on these days. In addition, the mares were teased with a vigorous stallion, to detect oestrus. […] Blood samples were assayed for lutsinizing hormone (LH) and progesterone concentrations. Ultrasound echography was used to diagnose pregnancy 14 days after ovulation. Subsequent ultrasound examinations were made every 2 or 3 days until Day 45 of pregnancy, when the experiment was terminated.

[3] = test system: maiden Standardbred mares in deep winter anoestrus; experiment: Example III: 28-day subcutaneous GnRH infusion by osmotic minipump, induction of ovulation (1985); conditions: for Proportion mares ovulating: deep anoestrus; for Proportion mares ovulating / Percentage mares ovulating: 1985
Excerpt: Delivery of GnRH was achieved via osmotic minipumps (OMP; Alza Corp., Palo Alto, CA:). These pumps are constructed of a rigid, semi-permeable membrane, inside which is suspended a water-proof bag which is filled with the substance to be infused. The neck of the bag is open to the atmosphere. Between the bag and the membrane a special osmotic solution is held. This solution causes an influx of water through the semi-permeable membrane when the OMP is placed in the body of animals. The influx of water collapses the bag at a fixed rate and the substance contained in the bag is expelled from the OMP at a steady rate. […] Sixteen maiden Standardbred mares, 3 to 6 years of age were used in the experiment which was conducted during deep winter anoestrus in 1985. The mares were in good to excellent condition and were run in 2 outside paddocks during the period of the experiment. The mares were divided into 3 groups. Group C (n=5) were untreated and acted as a control group, while Group 50 (n=5) and Group 100 (n=6) received infusions of GnRH at rates of 50 ng/kg/h and 100 ng/kg/h, respectively. The GnRH was delivered via subcutaneously implanted OMP for 28 days, starting on July 2, 1985. Ovarian palpations and oestrus detection was carried out 3 times per week or daily when an ovarian follice of >3 cm diameter was detected.

[4] = test system: Standardbred and Standardbred-type mares in transitional anoestrus
Excerpt: Delivery of GnRH was achieved via osmotic minipumps (OMP; Alza Corp., Palo Alto, CA:). These pumps are constructed of a rigid, semi-permeable membrane, inside which is suspended a water-proof bag which is filled with the substance to be infused. The neck of the bag is open to the atmosphere. Between the bag and the membrane a special osmotic solution is held. This solution causes an influx of water through the semi-permeable membrane when the OMP is placed in the body of animals. The influx of water collapses the bag at a fixed rate and the substance contained in the bag is expelled from the OMP at a steady rate. […] Seventeen Standardbred and Standardbred-type mares 3 to 9 years of age were used in the experiment, which commenced on Oct. 2, 1985, when the mares were in transitional anoestrus. The mares were divided into 2 groups. One group (n=g) was treated with an infusion of GnRH at a rate of 100 ng/kg/h delivered by subcutaneously implanted OMP for 28 days. The mares were run in paddocks during the experiment and brought into yards every 2 or 3 days, during which time oestrus detection was carried out. […] Blood samples were collected 3 times per week for determination of plasma LH and progesterone concentrations. Ultrasound echography was used to diagnose pregnancy 14 days after ovulation, and every 2 or 3 days thereafter until Day 45 of pregnancy, when the experiment was terminated.

[5] = test system: mares in deep anoestrus; experiment: Combined results, deep anoestrus (1984 and 1985); conditions: 1984 and 1985 combined
Protocol: Fourteen Standardbred mares in deep anoestrus were divided into 3 groups. Group C (controls; n=5) received no treatment while Group 50 (n=5) and Group 100 (n=4) were given infusions of GnRH at rates of 50 ng/kg/h and 100 ng/kg/h respectively. The GnRH was administered via subcutaneously implanted osmotic minipumps (OMP) for 28 days. Blood samples were collected daily and ovarian palpation and oestrus detection was carried out 3 times per week or daily if a follicle >3.5 cm was detected. The mares were divided into 3 groups. Group C (n=5) were untreated and acted as a control group, while Group 50 (n=5) and Group 100 (n=6) received infusions of GnRH at rates of 50 ng/kg/h and 100 ng/kg/h, respectively. The GnRH was delivered via subcutaneously implanted OMP for 28 days, starting on July 2, 1985. Ovarian palpations and oestrus detection was carried out 3 times per week or daily when an ovarian follice of >3 cm diameter was detected.

[6] = test system: mares in transitional anoestrus; experiment: Combined results, transitional anoestrus (1984 and 1985); conditions: 100 ng/kg/h
Protocol: The experiment commenced on Sept. 10, 1984. Mares were randomised in pairs to a Treated group or a Control group until all the mares had been assigned to groups by Sept. 21. The mares were paired on the basis of each mare having approximately equal ovarian follicular activity. Each treated mare was weighted just prior to the experiment. The dose of GnRH (100 ng/kg/hr) to be administered over 28 days was calculated and dissolved in sterile, physiological (0.9%) saline. The solution was loaded into an OMP and placed in a beaker of saline at room temperature overnight to allow for the "start up time" of the OMP. The mares were divided into 2 groups. One group (n=g) was treated with an infusion of GnRH at a rate of 100 ng/kg/h delivered by subcutaneously implanted OMP for 28 days. The mares were run in paddocks during the experiment and brought into yards every 2 or 3 days, during which time oestrus detection was carried out. […] Blood samples were collected 3 times per week for determination of plasma LH and progesterone concentrations. Ultrasound echography was used to diagnose pregnancy 14 days after ovulation, and every 2 or 3 days thereafter until Day 45 of pregnancy, when the experiment was terminated.

[7] = Group 50, 50 ng/kg/h s.c. OMP 28 days
[8] = Group 100, 100 ng/kg/h s.c. OMP 28 days

## CC(C)C[C@H](NC(=O)CNC(=O)[C@H](Cc1ccc(O)cc1)NC(=O)[C@H](CO)NC(=O)[C@H](Cc1c[nH]c2ccccc12)NC(=O)[C@H](Cc1c[nH]cn1)NC(=O)[C@@H]1CCC(=O)N1)C(=O)N[C@@H](CCCNC(=N)N)C(=O)N1CCC[C@H]1C(=O)NCC(N)=O [GnRH, pGlu-His-Trp-Ser-Tyr-Gly-Leu-Arg-Pro-Gly-NH2]
[1]; Group 50, 50 ng/kg/h
  Average time from OMP insertion to ovulation: 18.5 days
  Percentage mares ovulating: 40%
[1]; [7]
  Proportion mares ovulating: 2 of 5 and 2/5
[1]; Group 100, 100 ng/kg/h
  Average time from OMP insertion to ovulation: 17.3 days
  Percentage mares ovulating: 75%
[1]; [8]
  Proportion mares ovulating: 3 of 4 and 3/4
[1]; Group 100 compared to controls, Day 21
  Mean LH pulse frequency: significantly (<0.05) higher
[1]; between the 3 groups, any of the days studied
  LH pulse amplitude: no statistical difference
[1]; between the groups, Day 28
  LH pulse frequency: no difference
[1]; both treated groups (50 and 100 ng/kg/h) compared to control mares
  Mean daily plasma LH concentrations: higher
[1]; both treated groups compared to controls, within 7 days of insertion of OMP
  LH pulse frequency: significantly (p<0.05) higher
[2]; 100 ng/kg/hr s.c. OMP 28 days, transitional anoestrus, 1984
  Treated mares that ovulated during GnRH infusion: Four of the 5
[2]; 100 ng/kg/hr, 1984
  Treated mares that conceived in association with the first ovulation after insertion of the OMP: Four of the 5
[2]; 100 ng/kg/hr, 1984, n=5, after OMP insertion, p<0.01 vs controls
  Day of conception (x ± s.e.m.): 26.6 ± 9.7 days and 26.6 days
[2]; 100 ng/kg/hr, 1984, n=5, p<0.01 vs controls
  Time (day) of ovulation from commencement of the experiment (x ± s.e.m.): 18.6 ± 4.1 days and 18.6 days
[3]; Group 50, 50 ng/kg/h
  Average time from OMP insertion to ovulation: 24 days
  Percentage mares ovulating: 20%
[3]; [7]
  Proportion mares ovulating: 1 of 5 and 1/5
[3]; Group 100, 100 ng/kg/h
  Average time from OMP insertion to ovulation: 21.8 days
  Percentage mares ovulating: 67%
[3]; [8]
  Proportion mares ovulating: 4 of 6 and 4/6
[4]; 100 ng/kg/h s.c. OMP 28 days, transitional anoestrus, 1985
  Treated mares that ovulated during the period the OMP were functional: Eight of 9
[4]; 100 ng/kg/h, 1985, n=9, P<0.05 vs controls
  Average time (day) of ovulation from commencement of the experiment (x ± s.e.m.): 18.6 ± 4.3 days and 18.8 ± 4.3 days
[4]; 100 ng/kg/h, 1985, treated group
  Mares that failed to conceive: One
[4]; 100 ng/kg/h, 1985, P<0.05 vs controls, one mare failed to conceive
  Average day of conception from commencement of the experiment (x ± s.e.m.): 24.4 ± 8.1 days
[5]; Group 50, 50 ng/kg/h
  Percentage mares ovulating: 30%
  Proportion mares ovulating: 3/10
[5]; Group 100, 100 ng/kg/h
  Percentage mares ovulating: 70%
[5]; Group 100, 100 ng/kg/h, P < .01 vs controls
  Proportion mares ovulating: 7/10
[6]; 1984 and 1985 combined, n=14, P < .001 compared to controls
  Day of ovulation (x ± s.e.m.): 18.6 ± 3.0
[6]; 1984 and 1985 combined, n=14, P < .05 compared to controls
  Day of conception (x ± s.e.m.): 25.2 ± 6.0
[6]; data for the 2 years combined
  Average day of ovulation earlier than the controls: approximately 23 days
  Day of conception earlier than the controls: 24 days
